Results reported in the NIST ThermoML archive (doi:10.1021/je900596d).
Numbers after ± are expanded uncertainties.

Settings: Vibrating tube method

SMILES: FC(F)=C(F)C(F)(F)F [hexafluoropropene]
- mass density (353.12 K, 2589.9 kPa, Fluid (supercritical or subcritical phases)): 239.58 ± 0.55 kg/m3
- mass density (353.12 K, 2605.1 kPa, Fluid (supercritical or subcritical phases)): 243.48 ± 0.57 kg/m3
- mass density (353.12 K, 2619.7 kPa, Fluid (supercritical or subcritical phases)): 247.37 ± 0.59 kg/m3
- mass density (353.12 K, 2635.2 kPa, Fluid (supercritical or subcritical phases)): 251.52 ± 0.61 kg/m3
- mass density (353.12 K, 2649.7 kPa, Fluid (supercritical or subcritical phases)): 255.58 ± 0.65 kg/m3
- mass density (353.12 K, 2670.4 kPa, Fluid (supercritical or subcritical phases)): 261.98 ± 0.7 kg/m3
- mass density (353.12 K, 2690 kPa, Fluid (supercritical or subcritical phases)): 268.46 ± 0.75 kg/m3
- mass density (353.12 K, 2702.3 kPa, Fluid (supercritical or subcritical phases)): 272.91 ± 0.81 kg/m3
- mass density (353.12 K, 2710.7 kPa, Fluid (supercritical or subcritical phases)): 275.88 ± 0.82 kg/m3
- mass density (353.12 K, 2718.3 kPa, Fluid (supercritical or subcritical phases)): 278.85 ± 0.85 kg/m3
- mass density (353.12 K, 2725 kPa, Fluid (supercritical or subcritical phases)): 281.55 ± 0.89 kg/m3
- mass density (353.12 K, 2731.2 kPa, Fluid (supercritical or subcritical phases)): 284.3 ± 0.93 kg/m3
- mass density (353.12 K, 2737.4 kPa, Fluid (supercritical or subcritical phases)): 286.74 ± 0.95 kg/m3
- mass density (353.12 K, 2744.8 kPa, Fluid (supercritical or subcritical phases)): 290.14 ± 1 kg/m3
- mass density (353.12 K, 2751.1 kPa, Fluid (supercritical or subcritical phases)): 293.08 ± 1.1 kg/m3
- mass density (353.12 K, 2757.6 kPa, Fluid (supercritical or subcritical phases)): 296.25 ± 1.1 kg/m3
- mass density (353.12 K, 2764.5 kPa, Fluid (supercritical or subcritical phases)): 299.88 ± 1.1 kg/m3
- mass density (353.12 K, 2771.7 kPa, Fluid (supercritical or subcritical phases)): 303.81 ± 1.2 kg/m3
- mass density (353.13 K, 2798.4 kPa, Liquid): 887.06 ± 1.3 kg/m3
- mass density (353.13 K, 2805.3 kPa, Liquid): 888.96 ± 1.3 kg/m3
- mass density (353.13 K, 2812.6 kPa, Liquid): 890.6 ± 1.3 kg/m3
- mass density (353.13 K, 2818.9 kPa, Liquid): 891.84 ± 1.3 kg/m3
- mass density (353.13 K, 2825.7 kPa, Liquid): 893.67 ± 1.2 kg/m3
- mass density (353.13 K, 2832.6 kPa, Liquid): 894.71 ± 1.2 kg/m3
- mass density (353.13 K, 2839.4 kPa, Liquid): 896.74 ± 1.2 kg/m3
- mass density (353.13 K, 2846 kPa, Liquid): 898.09 ± 1.2 kg/m3
- mass density (353.13 K, 2852.6 kPa, Liquid): 899.46 ± 1.2 kg/m3
- mass density (353.13 K, 2859.8 kPa, Liquid): 900.81 ± 1.2 kg/m3
- mass density (353.13 K, 2866.7 kPa, Liquid): 902.11 ± 1.2 kg/m3
- mass density (353.13 K, 2873.8 kPa, Liquid): 903.63 ± 1.2 kg/m3
- mass density (353.13 K, 2881 kPa, Liquid): 904.67 ± 1.2 kg/m3
- mass density (353.13 K, 2888.2 kPa, Liquid): 906.06 ± 1.2 kg/m3
- mass density (353.13 K, 2908.5 kPa, Liquid): 909.29 ± 1.3 kg/m3
- mass density (353.13 K, 2928.4 kPa, Liquid): 912.84 ± 1.3 kg/m3
- mass density (353.13 K, 2948.2 kPa, Liquid): 915.77 ± 1.2 kg/m3
- mass density (353.13 K, 2969.5 kPa, Liquid): 918.7 ± 1.2 kg/m3
- mass density (353.13 K, 2989.9 kPa, Liquid): 921.51 ± 1.2 kg/m3
- mass density (353.13 K, 3009.6 kPa, Liquid): 924.14 ± 1.2 kg/m3
- mass density (353.13 K, 3030.5 kPa, Liquid): 926.96 ± 1.2 kg/m3
- mass density (353.13 K, 3051.7 kPa, Liquid): 929.82 ± 1.2 kg/m3
- mass density (353.13 K, 3072.6 kPa, Liquid): 932.36 ± 1.1 kg/m3
- mass density (353.13 K, 3094.1 kPa, Liquid): 935.03 ± 1.1 kg/m3
- mass density (353.13 K, 3116.1 kPa, Liquid): 937.73 ± 1.1 kg/m3
- mass density (353.13 K, 3136.7 kPa, Liquid): 940.03 ± 1.1 kg/m3
- mass density (353.13 K, 3159.1 kPa, Liquid): 942.35 ± 1.1 kg/m3
- mass density (353.13 K, 3182.1 kPa, Liquid): 944.69 ± 1.2 kg/m3
- mass density (353.13 K, 3205.5 kPa, Liquid): 946.93 ± 1.1 kg/m3
- mass density (353.13 K, 3225.2 kPa, Liquid): 948.79 ± 1.1 kg/m3
- mass density (353.13 K, 3246.7 kPa, Liquid): 950.79 ± 1.1 kg/m3
- mass density (353.13 K, 3265.8 kPa, Liquid): 952.67 ± 1.1 kg/m3
- mass density (353.13 K, 3286.3 kPa, Liquid): 954.54 ± 1.1 kg/m3
- mass density (353.13 K, 3309.6 kPa, Liquid): 956.7 ± 1.1 kg/m3
- mass density (353.13 K, 3330.5 kPa, Liquid): 958.57 ± 1.1 kg/m3
- mass density (353.13 K, 3353 kPa, Liquid): 960.43 ± 1.1 kg/m3
- mass density (353.13 K, 3369.2 kPa, Liquid): 961.77 ± 1.1 kg/m3
- mass density (353.13 K, 3392.7 kPa, Liquid): 963.71 ± 1.1 kg/m3
- mass density (353.13 K, 3399 kPa, Liquid): 964.17 ± 1.1 kg/m3
- mass density (353.13 K, 3429.5 kPa, Liquid): 966.86 ± 1.1 kg/m3
- mass density (353.13 K, 3457.9 kPa, Liquid): 969.07 ± 1.1 kg/m3
- mass density (353.13 K, 3487.3 kPa, Liquid): 971.26 ± 1.1 kg/m3
- mass density (353.13 K, 3521.2 kPa, Liquid): 973.81 ± 1.1 kg/m3
- mass density (353.13 K, 3546.8 kPa, Liquid): 975.65 ± 1.1 kg/m3
- mass density (353.13 K, 3574.3 kPa, Liquid): 977.54 ± 1.1 kg/m3
- mass density (353.13 K, 3599.5 kPa, Liquid): 979.42 ± 1.1 kg/m3
- mass density (353.13 K, 3626.9 kPa, Liquid): 981.32 ± 1.1 kg/m3
- mass density (353.13 K, 3653.9 kPa, Liquid): 982.94 ± 1.1 kg/m3
- mass density (353.13 K, 3680.4 kPa, Liquid): 984.8 ± 1.1 kg/m3
- mass density (353.13 K, 3736 kPa, Liquid): 988.5 ± 1.1 kg/m3
- mass density (353.13 K, 3763.9 kPa, Liquid): 990.13 ± 1.1 kg/m3
- mass density (353.13 K, 3788.8 kPa, Liquid): 991.7 ± 1.1 kg/m3
- mass density (353.13 K, 3815.8 kPa, Liquid): 993.28 ± 1.1 kg/m3
- mass density (353.13 K, 3840.7 kPa, Liquid): 994.81 ± 1.1 kg/m3
- mass density (353.13 K, 3865.5 kPa, Liquid): 996.26 ± 1.1 kg/m3
- mass density (353.13 K, 3891.9 kPa, Liquid): 997.74 ± 1.1 kg/m3
- mass density (353.13 K, 3918.8 kPa, Liquid): 999.3 ± 1.1 kg/m3
- mass density (353.13 K, 3943.7 kPa, Liquid): 1000.71 ± 1.1 kg/m3
- mass density (353.13 K, 3971.8 kPa, Liquid): 1002.02 ± 1.1 kg/m3
- mass density (353.13 K, 3985.4 kPa, Liquid): 1002.96 ± 1.1 kg/m3
- mass density (353.13 K, 4027.5 kPa, Liquid): 1005.16 ± 1.1 kg/m3
- mass density (353.13 K, 4066.7 kPa, Liquid): 1007.14 ± 1.1 kg/m3
- mass density (353.13 K, 4105.8 kPa, Liquid): 1009.21 ± 1.1 kg/m3
- mass density (353.13 K, 4146.8 kPa, Liquid): 1011.34 ± 1.1 kg/m3
- mass density (353.13 K, 4185.8 kPa, Liquid): 1013.28 ± 1.1 kg/m3
- mass density (353.13 K, 4216 kPa, Liquid): 1014.76 ± 1.1 kg/m3
- mass density (353.13 K, 4257.8 kPa, Liquid): 1016.64 ± 1.1 kg/m3
- mass density (353.13 K, 4298.4 kPa, Liquid): 1018.66 ± 1.1 kg/m3
- mass density (353.13 K, 4335.1 kPa, Liquid): 1020.3 ± 1.1 kg/m3
- mass density (353.13 K, 4374.3 kPa, Liquid): 1022.01 ± 1.1 kg/m3
- mass density (353.13 K, 4415.3 kPa, Liquid): 1023.76 ± 1.1 kg/m3
- mass density (353.13 K, 4454.8 kPa, Liquid): 1025.55 ± 1.1 kg/m3
- mass density (353.13 K, 4494.4 kPa, Liquid): 1027.22 ± 1.1 kg/m3
- mass density (353.13 K, 4534 kPa, Liquid): 1028.89 ± 1.1 kg/m3
- mass density (353.13 K, 4574.1 kPa, Liquid): 1030.62 ± 1.1 kg/m3
- mass density (353.13 K, 4611.4 kPa, Liquid): 1032.18 ± 1.1 kg/m3
- mass density (353.13 K, 4650.8 kPa, Liquid): 1033.77 ± 1.1 kg/m3
- mass density (353.13 K, 4692 kPa, Liquid): 1035.33 ± 1.1 kg/m3
- mass density (353.13 K, 4731.2 kPa, Liquid): 1036.88 ± 1.1 kg/m3
- mass density (353.13 K, 4772.4 kPa, Liquid): 1038.52 ± 1.1 kg/m3
- mass density (353.13 K, 4813.3 kPa, Liquid): 1040.05 ± 1.1 kg/m3
- mass density (353.13 K, 4854.9 kPa, Liquid): 1041.63 ± 1.1 kg/m3
- mass density (353.13 K, 4892.5 kPa, Liquid): 1043.01 ± 1.1 kg/m3
- mass density (353.13 K, 4933.3 kPa, Liquid): 1044.53 ± 1.1 kg/m3
- mass density (353.13 K, 4970.7 kPa, Liquid): 1045.82 ± 1.1 kg/m3
- mass density (353.13 K, 5012.1 kPa, Liquid): 1047.29 ± 1.1 kg/m3
- mass density (353.13 K, 5052.5 kPa, Liquid): 1048.76 ± 1.1 kg/m3
- mass density (353.13 K, 5091.9 kPa, Liquid): 1050.11 ± 1.1 kg/m3
- mass density (353.13 K, 5130 kPa, Liquid): 1051.53 ± 1.1 kg/m3
- mass density (353.13 K, 5169.1 kPa, Liquid): 1052.89 ± 1.1 kg/m3
- mass density (353.13 K, 5208.1 kPa, Liquid): 1054.11 ± 1.1 kg/m3
- mass density (353.13 K, 5247 kPa, Liquid): 1055.36 ± 1.1 kg/m3
- mass density (353.13 K, 5287.6 kPa, Liquid): 1056.62 ± 1.1 kg/m3
- mass density (353.13 K, 5325.3 kPa, Liquid): 1057.82 ± 1.1 kg/m3
- mass density (353.13 K, 5365.1 kPa, Liquid): 1059.19 ± 1.1 kg/m3
- mass density (353.13 K, 5403.1 kPa, Liquid): 1060.48 ± 1.1 kg/m3
- mass density (353.13 K, 5442.6 kPa, Liquid): 1061.62 ± 1.1 kg/m3
- mass density (353.13 K, 5480.8 kPa, Liquid): 1062.93 ± 1.1 kg/m3
- mass density (353.13 K, 5559.8 kPa, Liquid): 1065.32 ± 1.1 kg/m3
- mass density (353.13 K, 5597.5 kPa, Liquid): 1066.51 ± 1.1 kg/m3
- mass density (353.13 K, 5634.9 kPa, Liquid): 1067.6 ± 1.1 kg/m3
- mass density (353.13 K, 5673 kPa, Liquid): 1068.78 ± 1.1 kg/m3
- mass density (353.13 K, 5711.7 kPa, Liquid): 1069.91 ± 1.1 kg/m3
- mass density (353.13 K, 5751 kPa, Liquid): 1071.01 ± 1.1 kg/m3
- mass density (353.13 K, 5788.5 kPa, Liquid): 1072.12 ± 1.1 kg/m3
- mass density (353.13 K, 5826.7 kPa, Liquid): 1073.17 ± 1.1 kg/m3
- mass density (353.13 K, 5865.4 kPa, Liquid): 1074.15 ± 1.1 kg/m3
- mass density (353.13 K, 5902.7 kPa, Liquid): 1075.33 ± 1.1 kg/m3
- mass density (353.13 K, 5941.8 kPa, Liquid): 1076.43 ± 1.1 kg/m3
- mass density (353.13 K, 5981.5 kPa, Liquid): 1077.54 ± 1.1 kg/m3
- mass density (353.13 K, 6019.6 kPa, Liquid): 1078.56 ± 1.1 kg/m3
- mass density (353.13 K, 6060.4 kPa, Liquid): 1079.62 ± 1.1 kg/m3
- mass density (353.13 K, 6101 kPa, Liquid): 1080.65 ± 1.1 kg/m3
- mass density (353.13 K, 6140.3 kPa, Liquid): 1081.81 ± 1.1 kg/m3
- mass density (353.13 K, 6177.9 kPa, Liquid): 1082.78 ± 1.1 kg/m3
- mass density (353.13 K, 6216.7 kPa, Liquid): 1083.8 ± 1.1 kg/m3
